Measured values from paper PMC8271538, “Chemical Modulation of the 1-(Piperidin-4-yl)-1,3-dihydro-2H-benzo[d]imidazole-2-one Scaffold as a Novel NLRP3 Inhibitor” (Molecules, 2021).
Values joined by “and” are separate entries in the source; they are usually repeats but may differ in a detail not shown here. Equal entries are not always repeated. Where two headings read alike, the source gives them in different places. Marks after values point to notes of the source that are not given here.

How the values were obtained:
[1] = tested on: THP-1 cells
[2] = target: T1, human recombinant NLRP3 (Homo sapiens, UniProt Q96P20); assay: In vitro NLRP3 ATPase activity, on-bead ADP-Glo assay with immobilised NLRP3-GFP; format: biochemical; conditions: for Inhibition of NLRP3 ATPase activity (% reduction in ATP hydrolysis relative to vehicle control) / inhibition at 100 µM: 100 μM compound, ATP 800 μM, mean ± SEM, n = 4; for NLRP3 ATPase inhibition at 1 mM compared with 100 µM: 1 mM vs 100 µM compound, data not shown; for inhibition at 100 µM: read-out: Inhibition of NLRP3 ATPase activity (% reduction in ATP hydrolysis relative to vehicle control)
T1 construct: made in house; host or cells: HEK293T cells (transient transfection, captured from lysate on GFP-Trap Sepharose)

[3] = tested on: NLRP3-dependent pyroptosis in differentiated THP-1 cells; assay: NLRP3-dependent pyroptosis (LDH release) in PMA-differentiated, LPS-primed, ATP-triggered THP-1 cells; format: cell-based, human; conditions: for inhibition at 10 µM: THP-1, 1.5 h, read-out: Pyroptosis Decrease, % inhibition at 10 µM; for inhibition at 1 µM: THP-1, 1 µM test compound (Figure 3)
[4] = tested on: IL-1β release in differentiated THP-1 cells; assay: IL-1β release (ELISA) in supernatants of LPS/ATP-treated differentiated THP-1 cells; format: cell-based, human; conditions: same experiments as pyroptosis, vs vehicle-treated cells, mean ± SEM; for IL-1β Inhibition, % inhibition at 10 µM: 10 µM test compound; for inhibition at 10 µM: Homo sapiens, THP-1, 10 µM test compound
Experimental: Different techniques could be used to study NLRP3 inhibitors; the use of differentiated THP-1 cells treated with NLRP3 activating stimuli is suitable for the screening of large series of compounds [48]. All the synthesised compounds (Figure 2) were evaluated for their NLRP3 inhibitory activity by measuring their ability to prevent NLRP3-dependent pyroptosis in differentiated THP-1 cells. THP-1 cells were differentiated into macrophages by treatment with phorbol-myristate acetate (PMA; 50 nM; 24 h) and then treated with lipopolysaccharide (LPS; 10 µg/mL; 4 h) to promote NLRP3 expression. The cells were then incubated with test compounds at the fixed concentration of 10 µM for 1 h. Test compounds were dissolved in serum free medium containing 0.1% DMSO as the vehicle. NLRP3 was activated by the addition of ATP (5 mM), and the pyroptotic cell death was evaluated after 1.5 h by measuring the lactate dehydrogenase (LDH) released in the cell supernatants. The obtained results, expressed as pyroptosis% decrease with respect to vehicle-treated cells, are collected in Table 1. In the same experiments, the release of IL-1β was measured via an ELISA assay and the results, expressed as % inhibition of IL-1β release versus vehicle-treated cells, are reported in Table 1. Finally, the cytotoxicity of the synthesised compounds was evaluated by MTT assay after treatment of THP-1 cells with increasing concentration of test compounds (0.1–100 µM) for 72 h. […] The structural modulation of compound 2 was then carried out in order to understand whether it was possible to restore/increase the activity without the re-introduction of a Michael acceptor substructure.
Human myelomonocytic THP-1 cells were cultured in RPMI 1640 medium (Aurogene, Rome, Italy) supplemented with fetal bovine serum (10%; Aurogene), L-glutamine (2 mM; Aurogene), penicillin (100 IU/mL; Aurogene) and streptomycin ([…]; Aurogene). Cell culture medium was replaced every 2−3 days, and the cultures were maintained at 37 °C and 5% CO2 in a fully humidified incubator. The day before each experiment, cells were plated in 48-well culture plates (90.000 cells/well) and were differentiated by treatment with PMA (50 nM, 24 h; Sigma-Aldrich). PMA-differentiated THP-1 cells were washed twice with phosphate-buffered saline (PBS) and primed with LPS (10 μg/mL, 4 h; Sigma-Aldrich) in serum-free medium. Cells were then incubated with compounds dissolved in medium containing 0.1% DMSO for 1 h and cell death was triggered with ATP (5 mM, 90 min; Sigma-Aldrich). MCC950 (Sigma-Aldrich batch #45216 and batch #85021 and from Crysdot (product n. CD31002496; OS05876-18070932) was used in the experiments.
IL-1β release was quantified in differentiated THP-1 supernatant, obtained as previously described, using Human IL-1 beta Uncoated ELISA kit (Invitrogen, Waltham, MA, USA), according to the manufacture’s instruction.

[5] = 10 µM test compound, 1 h before ATP (5 mM, 90 min), vs vehicle-treated cells, mean ± SEM, NA = not active at 10 µM
[6] = 72 h treatment, 0.1–100 µM, MTT, TC50 ± SEM of three experiments
[7] = Homo sapiens, 10 µM test compound, 1 h before ATP (5 mM, 90 min), vs vehicle-treated cells, mean ± SEM, NA = not active at 10 µM

T1 sequence (Q96P20 whole entry): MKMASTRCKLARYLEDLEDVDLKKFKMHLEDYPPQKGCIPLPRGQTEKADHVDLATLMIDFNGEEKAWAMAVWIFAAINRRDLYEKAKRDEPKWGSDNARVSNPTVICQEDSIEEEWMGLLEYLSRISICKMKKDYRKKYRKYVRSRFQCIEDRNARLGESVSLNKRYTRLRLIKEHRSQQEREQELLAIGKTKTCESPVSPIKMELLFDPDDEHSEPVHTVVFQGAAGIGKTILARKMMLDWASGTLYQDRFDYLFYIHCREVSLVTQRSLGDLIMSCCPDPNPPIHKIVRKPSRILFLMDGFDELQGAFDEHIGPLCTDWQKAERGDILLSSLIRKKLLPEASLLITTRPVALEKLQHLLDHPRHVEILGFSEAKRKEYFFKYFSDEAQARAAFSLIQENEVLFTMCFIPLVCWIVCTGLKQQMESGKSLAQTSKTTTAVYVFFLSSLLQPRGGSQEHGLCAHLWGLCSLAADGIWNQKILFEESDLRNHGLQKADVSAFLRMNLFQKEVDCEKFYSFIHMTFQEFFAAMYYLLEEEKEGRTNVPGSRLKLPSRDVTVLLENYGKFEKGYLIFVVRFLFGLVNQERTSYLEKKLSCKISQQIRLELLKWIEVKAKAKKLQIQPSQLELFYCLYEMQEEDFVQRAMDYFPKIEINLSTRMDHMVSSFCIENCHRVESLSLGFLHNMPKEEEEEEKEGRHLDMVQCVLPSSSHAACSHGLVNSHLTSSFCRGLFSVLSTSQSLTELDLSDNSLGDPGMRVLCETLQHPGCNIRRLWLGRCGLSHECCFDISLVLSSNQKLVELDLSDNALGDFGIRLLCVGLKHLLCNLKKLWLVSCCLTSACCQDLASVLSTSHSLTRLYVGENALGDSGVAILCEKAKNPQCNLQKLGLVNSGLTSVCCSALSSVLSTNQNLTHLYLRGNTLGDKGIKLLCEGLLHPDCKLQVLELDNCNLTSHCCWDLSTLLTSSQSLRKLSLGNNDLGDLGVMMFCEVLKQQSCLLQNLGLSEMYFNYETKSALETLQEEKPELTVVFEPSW

Row | Molecule | Inhibition of NLRP3 ATPase activity (% reduction in ATP hydrolysis relative to vehicle control) [2] | Pyroptosis Decrease, % inhibition at 10 µM [3, 5] | Cytotoxicity TC50 [1, 6] | inhibition at 10 µM [4] [%] | inhibition at 10 µM [3, 7] [%] | further results
1 | 1-(1-(2-(2-chlorophenyl)acetyl)piperidin-4-yl)-1,3-dihydro-2H-benzo[d]imidazol-2-one [Compound 4] | reduce | – | – | – | – | Cytotoxicity TC50 [1]: 80.9 ± 3.2 µM; Pyroptosis Decrease, % inhibition at 10 µM [3]: inactive
2 | 2-(3-(3-(2-chlorophenyl)propanoyl)-2-oxo-2,3-dihydro-1H-benzo[d]- imidazol-1-yl)propionic acid [Compound 21] | reduced the inhibitory potential | the activity was suppressed | – | – | – | Cytotoxicity TC50 [1]: 80.1 ± 1.4 µM
3 | 3-(2-chlorophenyl)-N-(2-oxo-2-(4-(2-oxo-2,3-dihydro-1H-benzo[d]imidazol-1-yl)piperidin-1-yl)ethyl)propenamide [Compound 6] | 22.5 ± 1.4% | about 35% | – | – | – | Cytotoxicity TC50 [1]: 61.7 ± 1.0 µM; IL-1β Inhibition, % inhibition at 10 µM ([4]; 10 µM): 18–21%; IL-1β Inhibition, % inhibition at 10 µM ([4]; listed as 6 (INF148), 10 µM): 21.0 ± 3.2 ^d %; NLRP3 ATPase inhibition at 1 mM compared with 100 µM [2]: no significant differences; Pyroptosis Decrease, % inhibition at 10 µM ([3]; 10 µM test compound, 1 h before ATP (5 mM, 90 min), vs vehicle-treated cells, mean ± SEM, NA = not active at 10 µM, listed as 6 (INF148)): 35.0 ± 6.9 ^d %
4 | 3-(2-chlorophenyl)-N-(4-oxo-4-(4-(2-oxo-2,3-dihydro-1H-benzo[d]imidazol-1-yl)piperidin-1-yl)butyl)propenamide [Compound 8] | – | 32.2 ± 10.6 ^d % | – | – | – | Cytotoxicity TC50 [1]: 86.3 ± 5.1 µM
5 | 3-(2-chlorophenyl)-N-methyl-N-(3-(2-oxo-2,3-dihydro-1H-benzo[d]imidazole-1-yl)propyl)propenamide [Compound 11] | – | – | – | – | – | Pyroptosis Decrease, % inhibition at 10 µM [3]: inactive
6 | C=C(Cc1ccccc1Cl)C(=O)N1CCC(n2c(=O)[nH]c3ccccc32)CC1 [Compound 1, 1-(1-(2-(2-chlorobenzyl)acryloyl)piperidin-4-yl)-1,3-dihydro-2H-benzo[d]imidazol-2-one] | – | – | 32.9 ± 19 µM and 32.9 ± 19.0 µM | 19.4 ± 0.4 | 24.9 ± 6.3 | IL-1β Inhibition, % inhibition at 10 µM ([4]; 10 µM): 14.4 ± 5.0%; inhibition at 100 µM [2]: 28.4 ± 2.6%
7 | O=C(CCc1ccccc1Cl)N1CCC(n2c(=O)[nH]c3ccccc32)CC1 [Compound 2, 1-(1-(3-(2-chlorophenyl)propanoyl)piperidin-4-yl)-1,3-dihydro-2H-benzo[d]imidazol-2-one] | – | – | 64.1 ± 4.7 µM | 10.3 ± 5.8 | 14.9 ± 5.8 | inhibition at 100 µM [2]: 28.6 ± 5.5%; inhibition at 50 µM ([3]; Homo sapiens, THP-1, 50 µM test compound): 29.1 ± 4.8%
8 | O=C(CCc1ccccc1Cl)NCCC(=O)N1CCC(n2c(=O)[nH]c3ccccc32)CC1 [Compound 7, 3-(2-chlorophenyl)-N-{3-oxo-3-[4-(2-oxo-2,3-dihydro-1,3-benzodiazol-1-yl)piperidin-1-yl]propyl}propanamide] | – | – | 62.4 ± 13.3 µM | 18 to 21 | ~35 | IL-1β Inhibition, % inhibition at 10 µM ([4]; 10 µM): 17.8 ± 7.5%
9 | O=C(CCc1ccccc1Cl)NCCn1c(=O)[nH]c2ccccc21 [Compound 9, 3-(2-chlorophenyl)-N-(2-(2-oxo-2,3-dihydro-1H-benzo[d]imidazol-1-yl)ethyl) propanamide] | restored the ATPase inhibition | – | 87.1 ± 1.9 µM | 20.3 ± 1.3 | 39.2 ± 6.6 | inhibition at 100 µM [2]: 18.3 ± 3.2%; NLRP3 ATPase inhibition at 1 mM compared with 100 µM [2]: no significant differences; inhibition at 1 µM ([3]; Homo sapiens): 20 to 30%
10 | O=C(CCc1ccccc1Cl)NCCCn1c(=O)[nH]c2ccccc21 [Compound 10, 3-(2-chlorophenyl)-N-(3-(2-oxo-2,3-dihydro-1H-benzo[d]imidazol-1-yl)propyl) propanamide] | no effect on ATPase inhibition was detected | inactive | >100 µM | – | – | –
11 | CNC(=NC#N)NC1CCN(C(=O)CCc2ccccc2Cl)CC1 [Compound 12, 1-(1-(3-(2-chlorophenyl)propanoyl)piperidin-4-yl)-2-cyano-3-methylguanidine] | – | – | >100 µM | 19 ± 0.4 | 15.7 ± 9.1 | –
12 | N#CN=C(NCc1ccccc1)NC1CCN(C(=O)CCc2ccccc2Cl)CC1 [Compound 13, 1-benzyl-3-(1-(3-(2-chlorophenyl)propanoyl)piperidin-4-yl)-2-cyanoguanidine] | significant inhibition of ATPase activity | able to inhibit | 85.7 ± 5.6 µM | 25.2 ± 4.9 | 45 ± 8.8 | IL-1β Inhibition, % inhibition at 10 µM ([4]; 10 µM): able to inhibit; inhibition at 100 µM [2]: 26.5 ± 3.1%; NLRP3 ATPase inhibition at 1 mM compared with 100 µM [2]: no significant differences; inhibition at 1 µM ([3]; Homo sapiens): 20 to 30%
13 | O=C(CCc1ccccc1Cl)N1CCC(n2cnc3ccccc32)CC1 [Compound 14, 1-(4-(1H-benzo[d]imidazol-1-yl)piperidin-1-yl)-3-(2-chlorophenyl)propan-1-one] | – | inactive | 92.6 ± 4.0 µM | – | – | –
14 | N#CN=c1[nH]c2ccccc2n1C1CCN(C(=O)CCc2ccccc2Cl)CC1 [Compound 15, N-(1-(1-(3-(2-chlorophenyl)propanoyl)piperidin-4-yl)-1,3-dihydro-2H-benzo[d]imidazol-2-ylidene)cyanamide] | significant inhibition of ATPase activity | inactive | 83.4 ± 0.8 µM | – | – | –
15 | O=C(CCc1ccccc1Cl)n1c(=O)[nH]c2ccccc21 [Compound 16, 1-(3-(2-chlorophenyl)propanoyl)-1,3-dihydro-2H-benzo[d]imidazol-2-one] | – | – | 77.3 ± 3.7 µM | 14.9 ± 8.8 | 37.7 ± 7.6 | –
16 | CCOC(=O)Cn1c(=O)n(CCc2ccccc2Cl)c2ccccc21 [Compound 22, Ethyl 2-(3-(2-chlorophenethyl)-2-oxo-2,3-dihydro-1H-benzo[d]imidazol-1-yl) acetate] | – | – | 92.8 ± 2.1 µM | – | – | –
17 | O=C(O)Cn1c(=O)n(CCc2ccccc2Cl)c2ccccc21 [Compound 23, 2-(3-(2-chlorophenethyl)-2-oxo-2,3-dihydro-1H-benzo[d]imidazol-1-yl)acetic acid] | – | – | 62.4 ± 1.2 µM | 13.9 ± 16.4 | 26.3 ± 3.5 | –
18 | CC(C)(O)c1coc(S(=O)(=O)NC(=O)Nc2c3c(cc4c2CCC4)CCC3)c1 [MCC950, reference compound] | – | – | >100 µM | 37.6 ± 6 | – | –
19 | Ethyl 2-(3-(3-(2-chlorophenyl)propanoyl)-2-oxo-2,3-dihydro-1H-benzo[d] imidazol-1-yl)propanoate [Compound 20] | – | 24.4 ± 6.8% | – | – | – | Cytotoxicity TC50 [1]: 57.6 ± 3.2 µM; IL-1β Inhibition, % inhibition at 10 µM [4]: 13.8 ± 5.4%
